Data published in patent US20030114512A1, “Compounds with 5-ht2 and 5-ht1a agonist activity for treating glaucoma” (priority 2002, published 2003).
Read-outs that look alike come from different tables or passages of the source.

Assays:
5-HT1A receptor = molecular target: T1, 5-HT1A receptor (UniProt P08908); assay: 5-HT1A functional assays (inhibition of forskolin-stimulated adenylate cyclase / cAMP); format: biochemical; conditions: for EC50: read-out: EC50, nM (SEM) 5-HT1A functional
T1 sequence (P08908 1-422): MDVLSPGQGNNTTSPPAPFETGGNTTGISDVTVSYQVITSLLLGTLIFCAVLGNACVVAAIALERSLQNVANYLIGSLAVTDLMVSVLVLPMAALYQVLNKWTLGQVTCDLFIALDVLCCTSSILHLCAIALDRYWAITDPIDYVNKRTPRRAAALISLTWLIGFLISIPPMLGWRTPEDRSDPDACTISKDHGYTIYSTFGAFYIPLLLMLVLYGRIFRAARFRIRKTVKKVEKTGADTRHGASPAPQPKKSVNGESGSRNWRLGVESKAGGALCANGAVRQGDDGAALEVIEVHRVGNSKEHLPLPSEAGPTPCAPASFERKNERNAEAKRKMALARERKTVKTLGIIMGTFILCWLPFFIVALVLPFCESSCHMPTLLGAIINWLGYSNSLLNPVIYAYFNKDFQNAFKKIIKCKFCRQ
Description: The function of Compounds of the present invention can be determined using a variety of methods to assess the functional activity of 5-HT1A agonists. One such assay is performed using hippocampal slices from male Sprague-Dawley rats, measuring the inhibition of forskolin-stimated adenylate cyclase [J. Med. Chem. 42. 36 (1999), J. Neurochem. 56, 1114 (1991), J. Pharm. Exper. Ther. 284:1082 (1998). Rat hippocampal membranes were homogenized in 25 volumes of 0.3 M sucrose containing 1 mM EGTA, 5 mM EDTA, 5 mM dithiothreitol, and 20 mM Tris-HCl, pH 7.4 at 25° C. The homogenate was centrifuged for 10 m in at 1,000×g. The supernatant subsequently was centrifuged at 39,000×g for 10 min. The resulting pellet was re-suspended in homogenization buffer at a protein concentration of approximately 1 mg/ml and aliquots were stored at −140° C. Prior to use, the membranes were rehomogenized in a Potter-Elvehjem homogenizer. Fifty μl of the membrane suspension (50 μg protein) were added to an incubation buffer containing 100 mM NaCl, 2 mM magnesium acetate, 0.2 mM ATP, 1 mM cAMP, 0.01 mM GTP, 0.01 mM forskolin, 80 mM Tris-HCl, 5 mM creatine phosphate, 0.8 U/μl creatine phosphokinase, 0.1 mM IBMX, 1-2 μCi α-[^32P]ATP. Incubations with test compounds (10 min at 30° C.) were initiated by the addition of the membrane solution to the incubation mixture (prewarmed 5 min at 30° C.). [^32P]cAMP was measured according to the method of Salomon (Adv. Cyclic Nucleotide Res. 10:35-55, 1979). Protein was measure using the Bradford (Anal. Biochem 72:248-254, 1976) assay.
Functional activity can also be determined in recombinant human receptors according to the method of Schoeffter et al., (Neuropharm. 36:429-437, 1997). HeLa cells transfected with recombinant human 5-HT1A receptors were grown to confluence in 24-well plates. The cells were rinsed with 1 ml of Hepes-buffered saline (in mM) NaCl 130, KCl 5.4, CaCl2, 1.8, MgSO4 0.8, NaH2PO4 0.9, glucose 25, Hepes 20, pH 7.4, and phenol red 5 mg/l. The cells were labelled with 6 μCi/ml of [^3H] adenine (23 Ci/mmol, Amersham, Rahn AG, Zurich, Switzerland) in 0.5 ml of saline at 37° C. for 2 hr. The plates were subsequently rinsed twice with 1 ml of buffered saline containing 1 mM isobutylmethylxanthine. The cells were incubated for 15 min in 1 ml of this solution (37° C.) in the presence or absence of 10 μM forskolin and the test compound. The buffer was then removed and 1 ml of 5% trichloroacetic acid (TCA) containing 0.1 mM cAMP and 0.1 mM ATP was added to extract the samples. After 30 min at 4° C., the TCA extracts were subjected to chromatographic separation on Dowex AG 50W-X4 and alumina columns (Salomon, Methods in Enzymology 195: 22-28, 1991). Cyclic AMP production was calculated as the ratio [^3H]cAMP/([^3H]cAMP+[^3H]ATP).

[1] = molecular target: T2, human cloned 5-HT1A receptors (Homo sapiens, UniProt P08908); assay: 5-HT1A receptor binding assay ([3H]8-OH-DPAT)
T2 construct: purchased NEN (manufactured by Biosignal, Inc., Montreal, Canada); host or cells: CHO cells (membranes)
T2 sequence (P08908 1-422): T1 sequence (P08908 1-422)
Description: 5-HT1A Receptor Binding Assay
5-HT1A binding studies were performed with human cloned receptors expressed in Chinese hamster ovary (CHO) cells using (^3H)8-OH DPAT as the ligand. Membranes from Chinese hamster ovary cells (CHO) expressing cloned 5-HT1A receptors (manufactured for NEN by Biosignal, Inc., Montreal, Canada) were homogenized in approximately 40 volumes of 50 mM Tris pH 7.4 for 5 sec. Drug dilutions were made using a Beckman Biomek 2000 robot (Beckman Instruments, Fullerton, Calif.). Incubations were conducted with membrane prep, test compounds, and 0.25 nM [^3H]8-OH-DPAT (NEN, Boston, Mass.) in the same buffer at 27° C. for 1 h. Assays were terminated by rapid vacuum filtration over Whatman GF/B glass fiber filters pre-soaked in 0.3% polyethyleneimine. Bound radioactivity was measured using liquid scintillation spectrometry. Data were analyzed using non-linear curve fitting programs (Sharif et al., J. Pharmac. Pharmacol. 51: 685-694, 1999).
Ligand binding studies can also be run using membrane preparations from calf and rat brain (local source) and human cortex membranes. Specific brain regions were dissected out, homogenized in 10 volumes of 0.32 M sucrose and centrifuged for 10 min at 700×g. The resulting supernatant was centrifuged at 43,500×g for 10 min and the pellet re-suspended in 50 mM Tris-HCl (pH 7.7, 25° C.) using a 10 sec polytron treatment. Aliquots were stored at −140° C. To remove endogenous serotonin, the preps were incubated at 37° C. for 10 min prior to the experiment. Assay incubations were terminated by rapid filtration over Whatman GF/C filters using a Brandel cell harvester. Ki values were calculated using the Cheng-Prusoff equation (De Vry et al., J. Pharm. Exper. Ther. 284:1082-1094, 1998.)

Compound | Efficacy (Emax, %) 5-HT1A functional (5-HT1A receptor) [%] | EC50 (5-HT1A receptor) [nM] | IC50 ([1]; [3H]8-OH-DPAT, CHO cell membranes, read-out: IC50, nM (SEM) 5-HT1A receptor binding) [nM] | IC50 [1] [nM]
CC(N)Cn1ccc2ccc(O)cc21.O=C(O)/C=C/C(=O)O (stereo not drawn) [1-(2-aminopropyl) 6-hydroxyindole fumarate] | 89 | 780 | 111 | 
CC(N)Cc1c[nH]c2ccc(O)cc12.O=C(O)/C=C\C(=O)O (stereo not drawn) [α-Methyl 5-hydroxytryptamine maleate, 3-(2-aminopropyl)-1H-indol-5-ol] | 100 | 378 |  | 22.5
COc1ccc2[nH]cc(CC(C)N)c2c1.O=C(O)/C=C/C(=O)O (stereo not drawn) [α-Methyl 5-methoxytryptamine fumarate] | 92 | 570 |  | 26.5
